Experimental findings from BindingDB's records for patent US12473304 (Bristol-Myers Squibb, 2025) are described below.

Structures are written as SMILES.

Sequence of Protein-arginine deiminase type-4 (Q9UM07 whole entry): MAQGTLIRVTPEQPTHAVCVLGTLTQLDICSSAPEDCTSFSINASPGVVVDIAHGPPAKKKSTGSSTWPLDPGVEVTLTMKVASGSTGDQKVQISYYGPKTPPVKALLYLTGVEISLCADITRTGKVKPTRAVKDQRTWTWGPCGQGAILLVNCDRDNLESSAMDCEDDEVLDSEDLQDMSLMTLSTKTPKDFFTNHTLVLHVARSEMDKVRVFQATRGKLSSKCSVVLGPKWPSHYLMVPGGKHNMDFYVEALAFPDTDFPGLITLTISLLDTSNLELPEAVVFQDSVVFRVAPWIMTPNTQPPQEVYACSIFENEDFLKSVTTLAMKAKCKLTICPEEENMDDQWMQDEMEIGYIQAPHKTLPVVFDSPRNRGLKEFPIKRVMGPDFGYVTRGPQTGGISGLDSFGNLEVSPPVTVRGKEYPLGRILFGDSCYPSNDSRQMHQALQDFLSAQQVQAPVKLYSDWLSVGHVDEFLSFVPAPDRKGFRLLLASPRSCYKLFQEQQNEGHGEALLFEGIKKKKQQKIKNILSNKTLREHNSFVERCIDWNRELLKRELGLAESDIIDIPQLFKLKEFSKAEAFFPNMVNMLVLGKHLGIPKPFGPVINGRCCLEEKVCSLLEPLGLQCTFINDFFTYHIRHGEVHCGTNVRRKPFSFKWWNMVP

The target of the assay is Protein-arginine deiminase type-4 (Homo sapiens, UniProt Q9UM07). Description: RFMS Human PAD4 Functional Assay 1. How it is done:
Reaction volume: 26 μlAssay buffer: 25 mM hepes, pH 7.5, 5 mM NaCl, 1 mM DTT, 0.2 mg/ml BSA, 0.01% CHAPS, 50 μM Calcium, and 5 μM TPENFinal concentrations: 5 nM hPAD4 enzyme, 250 μM BASE, and 0.5% DMSOTotal incubation time: 30 mins compound and enzyme preincubation at 37° C., 90 min enzyme/substrate reaction, 30 min reaction with phenyl glyoxal at 37° C.Stop solution: 40 μl 5% TCA in ACN0.13 μL of compound solution was added to 13 μL of 10 nM PAD4 in assay buffer. After 30 min 13 μl of 500 μM of BAEE was added in 25 mM hepes, pH 7.5, 5 mM NaCl, 1 mM DTT, 0.2 mg/ml BSA, 0.01% CHAPS, 50 μM Calcium, 5 μM TPEN was added and the reaction incubated for 90 min at 37° C. The enzymatic reaction was quenched by addition of 15 μl of 6.1N TCA, 100% Final Concentration is 20%, 35 μl of 8.5 mM phenyl glyoxal (final concentration 4 mM) is then added and the reaction is incubated for 30 min at 37° C.After 30 minutes the plates are spun down to remove all precipitate. The enzyme reaction was quenched with an equal volume of methanol containing internal standard (modified citrulline). Samples were loaded onto the Rapid Fire RF300 system (Agilent) wherein they were first sipped for 1000 ms and then directly loaded to a C18 separations cartridge using a mixture of acetonitrile containing 0.01% formic acid for 3000 ms desalting. The flow rate of the mobile phase was 1.5 ml/min. Once the samples were eluted from the cartridge, a mobile phase of acetonitrile containing 0.01% formic acid was used to move the samples into the mass spectrometer for 4000 ms at a flow rate of 1.25 ml/min/Sciex API5500 triple quadrupole mass spectrometer (Applied Biosystems) equipped with ESI was used to analyze the peptidyl citrulline and internal standard ions.
Compound `COc1cc(C(=O)N2C[C@H](N)C[C@@H](F)C2)cn2nc(-c3cc4ccc(Cl)nc4n3CC3CC3)c(C)c12` [US12473304, Example 15] came in with an IC50 of 0.526 µM.

Consider `Cc1c(-c2cc3ccc(-c4ccc5c(c4)CNC5=O)nc3n2CC2CC2)nn2cc(C(=O)N3CC4CCC3[C@@H]4N)ccc12` (stereo not given in full) [US12473304, Example 64], for which the midpoint of inhibition, the IC50, lay at 0.055 µM. In turn, `COc1cc(C(=O)N2CC3CCC2[C@@H]3N)cn2nc(-c3cc4ccc(C(C)(C)O)cc4n3CC3CC3)c(C)c12` (stereo not given in full) [US12473304, Example 97] registered an IC50 of 0.03 µM. For `COc1cc(C(=O)N2C[C@H](N)C[C@@H](F)C2)cn2nc(-c3cc4ccc(-c5cc(F)c(C(N)=O)cc5C)nc4n3CC3CC3)c(C)c12` [US12473304, Example 207], the midpoint of inhibition, the IC50, lay at 0.15 µM. For `COc1cc(C(=O)N2CCC[C@@H](N)C2)cn2nc(-c3cc4ccc(-c5cc(F)c(C(N)=O)cc5C)nc4n3CC3CC3)c(C)c12` [US12473304, Example 208], the IC50 is 0.14 µM.

For orientation: IC50 means the concentration needed to halve the response being measured. A higher IC50 goes with lower potency.
